Values quoted from earlier work, collected in patent publication US20040171664A1, “Compositions of cyclooxygenase-2 selective inhibitors and selective serotonin reuptake inhibitors for the treatment or prevention of a vaso-occlusive event” (Pharmacia Corporation, priority 2002, published 2004).

Columns and labels:
restenosis = conditions: orally administered, stent implanted pig arteries
platelet activation = conditions: Pollock et al. 2000
[1] = test system: coronary intimal proliferation; conditions: oral administration, swine model of restenosis
[2] = both depressed and nondepressed patients
[3] = test system: vascular smooth muscle cells; conditions: in vitro
[4] = single dose intravenous pretreatment before coronary stenting

COc1ccc(C=CC(=O)Nc2ccccc2C(=O)O)cc1OC [tranilast, N-(3,4-dimethoxycinnamoyl) anthranilic acid]
rate of restenosis (restenosis): lower rate

CN[C@H]1CC[C@@H](c2ccc(Cl)c(Cl)c2)c2ccccc21 [sertraline]
preventing platelet activation (platelet activation): particularly effective

CN(C)CCCO[C@@H]1[C@H]2OC(C)(C)O[C@H]2O[C@@H]1[C@H](O)CO.Cl [aniprilose hydrochloride]
coronary intimal proliferation [1]: did not prevent

CNCCC=C1c2ccccc2CCc2ccccc21 [nortriptyline]
survival of stroke patients [2]: increased the survival

COc1cc(/C=C/C(=O)CC(=O)/C=C/c2ccc(O)c(OC)c2)ccc1O [curcumin]
proliferation of vascular smooth muscle cells [3]: reduced

CNCCC(Oc1ccc(C(F)(F)F)cc1)c1ccccc1 (stereo not shown) [fluoxetine]
survival of stroke patients [2]: increased the survival

C[C@H]1C[C@@H]2[C@H]([C@@H](O)C[C@@]3(C)[C@H]2CC[C@]3(O)C(=O)CO)[C@@]2(C)C=CC(=O)C=C12 [methylpridnisolone]
change in minimal lumen diameter at 6 months [4]: no effect
